According to publication PMC9081267 (Nature microbiology, 2022):

molecular target: T1, bovine pancreatic trypsin (Bos taurus, UniProt P00760); test: fluorogenic AMC substrate hydrolysis, kinetic read, non-linear regression; format: biochemical
T1 sequence (P00760 24-246): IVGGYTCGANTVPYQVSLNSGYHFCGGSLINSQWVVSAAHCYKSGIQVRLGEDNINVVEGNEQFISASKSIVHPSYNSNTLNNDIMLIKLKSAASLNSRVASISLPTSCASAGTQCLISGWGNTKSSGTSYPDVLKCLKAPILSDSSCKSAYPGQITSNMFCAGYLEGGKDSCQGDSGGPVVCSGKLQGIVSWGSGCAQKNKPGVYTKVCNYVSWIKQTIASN

| Structure (SMILES) | IC50 [µM] |
| --- | --- |
| C=CC1=C(C)/C(=C/c2[nH]c(Cc3[nH]c(/C=C4\NC(=O)C(C)=C4C=C)c(C)c3CCC(=O)O)c(CCC(=O)O)c2C)NC1=O [Unconjugated Bilirubin] | 3.48 |
| C=CC1=C(C)/C(=C/C2=NC(=C\c3[nH]c(/C=C4\NC(=O)C(C)=C4C=C)c(C)c3CCC(=O)O)/C(CCC(=O)O)=C2C)NC1=O [Biliverdin] | 12.7 |
| CCC1=C(C)C(Cc2[nH]c(Cc3[nH]c(CC4NC(=O)C(C)=C4CC)c(C)c3CCC(=O)O)c(CCC(=O)O)c2C)NC1=O (stereo not shown) [Urobilinogen] | 4.83 |
| CCC1=C(C)/C(=C/c2[nH]c(Cc3[nH]c(/C=C4\NC(=O)C(C)=C4CC)c(C)c3CCC(=O)O)c(CCC(=O)O)c2C)NC1=O [Mesobilirubin] | 3.86 |
